Results published in ChEMBL document CHEMBL1914379, “Challenges of drug discovery in novel target space. The discovery and evaluation of PF-3893787: a novel histamine H4 receptor antagonist” (Bioorg Med Chem Lett, 2011).
The source made the active and inactive calls. The calls are words filed in the database; no cut-off is given here.

Tests used:
Histamine H4 receptor [1] = target: T1, Histamine H4 receptor (Homo sapiens, UniProt Q9H3N8); experiment: Antagonist activity at full length human H4R expressed in HEK293 cells assessed as reversal of forskolin-induced cAMP production by CRE-beta-lactamase reporter gene assay; assay type: functional, cell-based
T1 sequence (Q9H3N8 whole entry): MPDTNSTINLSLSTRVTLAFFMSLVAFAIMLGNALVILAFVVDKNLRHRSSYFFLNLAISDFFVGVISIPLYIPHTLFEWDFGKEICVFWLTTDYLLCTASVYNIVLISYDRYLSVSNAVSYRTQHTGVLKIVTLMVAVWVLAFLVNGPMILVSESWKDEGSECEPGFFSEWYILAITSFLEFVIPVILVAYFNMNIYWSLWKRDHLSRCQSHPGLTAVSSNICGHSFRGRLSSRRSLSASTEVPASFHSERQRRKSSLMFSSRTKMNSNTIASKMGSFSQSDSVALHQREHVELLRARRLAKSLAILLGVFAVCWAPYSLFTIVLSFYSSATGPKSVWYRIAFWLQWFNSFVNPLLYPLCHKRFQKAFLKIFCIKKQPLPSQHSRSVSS

[2] = Metabolic stability in rat liver microsomes; assay type: ADME, Microsome; settings: read-out: Stability
Histamine H4 receptor [3] = target: T1, Histamine H4 receptor; experiment: Displacement of [3H]-histamine from full length human H4R expressed in HEK293 cells; assay type: cell-based
Rattus norvegicus [4] = experiment: Toxicity in rat assessed as vacuolation at high dose, po for 7 days; assay type: organism-based; settings: in vivo, 168 h
Rattus norvegicus [5] = experiment: Toxicity in rat assessed as bone marrow cytology changes at high dose, po for 7 days; assay type: organism-based; settings: in vivo, 168 h
[6] = Clearance in rat at 1 mg/kg, iv and 1 mg/kg, po; assay type: ADME, organism-based; settings: in vivo
Rattus norvegicus [7] = experiment: Toxicity in po dosed rat assessed as decrease in reticulocyte counts for 4 days; assay type: organism-based; settings: in vivo, 96 h
[8] = Oral bioavailability in rat at 1 mg/kg; assay type: ADME, organism-based; settings: in vivo
[9] = Half life in rat at 1 mg/kg, iv and 1 mg/kg, po; assay type: ADME, organism-based; settings: in vivo
Rattus norvegicus [10] = experiment: Toxicity in po dosed rat assessed as decrease in erythropoiesis for 4 days; assay type: organism-based, Erythrocyte; settings: in vivo, 96 h
Rattus norvegicus [11] = experiment: Induction of pro-inflammatory response in rat dosed orally for 4 days; assay type: functional, organism-based
[12] = Volume of distribution in rat at 1 mg/kg, iv and 1 mg/kg, po; assay type: ADME, organism-based; settings: in vivo
[13] = Metabolic stability in human liver microsomes; assay type: ADME, Microsome; settings: read-out: Stability
Rattus norvegicus [14] = experiment: Toxicity in po dosed rat assessed as lymphoid depletion from thymus for 4 days; assay type: organism-based; settings: in vivo, 96 h
Rattus norvegicus [15] = experiment: Toxicity in po dosed rat assessed as lymphoid depletion from gut for 4 days; assay type: organism-based; settings: in vivo, 96 h
Rattus norvegicus [16] = experiment: Toxicity in po dosed rat assessed as lymphoid depletion from spleen for 4 days; assay type: organism-based; settings: in vivo, 96 h
Histamine H4 receptor [17] = target: T1, Histamine H4 receptor; experiment: Displacement of [3H]-histamine from human H4R expressed in HEK293T cells; assay type: cell-based, HEK-293T
[18] = Ratio of drug level in blood to plasma in human; assay type: ADME; settings: blood and plasma
[19] = Plasma protein binding in human; assay type: ADME, cell-free; settings: read-out: PPB (converted)
[20] = Half life in rat at 1 mg/kg, iv and 5 mg/kg, po; assay type: ADME, organism-based; settings: in vivo
[21] = Half life in dog at 1 mg/kg, iv and 10 mg/kg, po; assay type: ADME, organism-based, Canis lupus familiaris; settings: in vivo
Histamine H4 receptor [22] = target: T1, Histamine H4 receptor; experiment: Antagonist activity at H4R in human eosinophils assessed as inhibition of histamine-induced actin polymerisation; assay type: functional
[23] = Oral bioavailability in rat at 5 mg/kg; assay type: ADME, organism-based; settings: in vivo
Plasma = experiment: Plasma protein binding in dog at 1 mg/kg, iv and 10 mg/kg, po; assay type: ADME, organism-based, Canis lupus familiaris; settings: in vivo
Histamine H4 receptor [24] = target: T2, Histamine H4 receptor (Cavia porcellus, UniProt Q91ZY3); experiment: Displacement of [3H]-histamine from guinea pig H4R expressed in HEK293T cells; assay type: cell-based, HEK-293T
T2 sequence (Q91ZY3 whole entry): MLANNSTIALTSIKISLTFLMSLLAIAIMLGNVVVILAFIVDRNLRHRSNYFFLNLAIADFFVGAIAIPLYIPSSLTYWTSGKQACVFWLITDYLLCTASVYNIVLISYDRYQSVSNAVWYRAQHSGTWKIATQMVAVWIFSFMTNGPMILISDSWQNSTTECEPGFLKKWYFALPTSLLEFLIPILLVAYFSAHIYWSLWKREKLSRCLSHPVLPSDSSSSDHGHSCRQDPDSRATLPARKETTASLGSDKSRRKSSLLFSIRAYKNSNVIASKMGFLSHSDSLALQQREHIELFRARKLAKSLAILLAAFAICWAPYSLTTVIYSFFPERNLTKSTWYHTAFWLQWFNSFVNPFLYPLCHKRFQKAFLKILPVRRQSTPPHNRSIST

Histamine H4 receptor [25] = target: Histamine H4 receptor (Rattus norvegicus, UniProt Q91ZY1); experiment: Displacement of [3H]-histamine from rat H4R expressed in HEK293T cells; assay type: cell-based, HEK-293T
Sequence of Histamine H4 receptor (Rattus norvegicus, UniProt Q91ZY1) (Q91ZY1 whole entry): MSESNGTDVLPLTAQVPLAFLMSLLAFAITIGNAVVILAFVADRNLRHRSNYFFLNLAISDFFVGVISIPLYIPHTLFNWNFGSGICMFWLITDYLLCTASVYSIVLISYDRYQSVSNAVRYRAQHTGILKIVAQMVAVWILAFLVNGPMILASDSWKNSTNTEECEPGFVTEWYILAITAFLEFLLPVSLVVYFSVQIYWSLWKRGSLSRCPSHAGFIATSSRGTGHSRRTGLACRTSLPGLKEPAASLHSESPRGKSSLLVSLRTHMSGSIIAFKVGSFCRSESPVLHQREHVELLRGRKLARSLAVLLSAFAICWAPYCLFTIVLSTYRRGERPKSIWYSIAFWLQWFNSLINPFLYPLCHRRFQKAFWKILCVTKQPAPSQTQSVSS

Histamine H4 receptor [26] = target: T1, Histamine H4 receptor; experiment: Antagonist activity at H4R in human eosinophils assessed as inhibition of histamine-induced CD11b upregulation; assay type: functional
[27] = Oral bioavailability in dog at 10 mg/kg; assay type: ADME, organism-based, Canis lupus familiaris; settings: in vivo
[28] = Volume of distribution in dog blood at 1 mg/kg, iv and 10 mg/kg, po; assay type: ADME, organism-based, Canis lupus familiaris
[29] = Lipophilicity, log D of the compound; assay type: physicochemical; settings: octanol/water
HEK-293T [30] = experiment: Antagonist activity at dog H4R expressed in HEK293T cells assessed as reversal of forskolin-induced cAMP production by CRE-beta-lactamase reporter gene assay; assay type: functional, cell-based; settings: Canis lupus familiaris
[31] = Displacement of [3H]-histamine from dog H4R expressed in HEK293T cells; assay type: cell-based, Canis lupus familiaris; settings: hek-293t
[32] = Volume of distribution in rat blood at 1 mg/kg, iv and 5 mg/kg, po; assay type: ADME, organism-based
[33] = Plasma protein binding in rat at 1 mg/kg, iv and 5 mg/kg, po; assay type: ADME, organism-based; settings: read-out: PPB (converted)
[34] = Ratio of drug level in blood to plasma in rat at 1 mg/kg, iv and 5 mg/kg, po; assay type: ADME, organism-based
[35] = Blood clearance in rat at 1 mg/kg, iv and 5 mg/kg, po; assay type: ADME, organism-based
[36] = target: Histamine H4 receptor (Rattus norvegicus) (UniProt Q91ZY1); experiment: Partial agonist activity at rat H4R expressed in HEK293T cells assessed as reversal of forskolin-induced cAMP production by CRE-beta-lactamase reporter gene assay; assay type: functional, cell-based; settings: HEK-293T
Sequence of Histamine H4 receptor (Rattus norvegicus) (Q91ZY1 whole entry): as above

[37] = Ratio of drug level in blood to plasma in dog at 1 mg/kg, iv and 10 mg/kg, po; assay type: ADME, organism-based, Canis lupus familiaris
[38] = Displacement of [3H]-histamine from macaque H4R expressed in HEK293T cells; assay type: cell-based, Macaca mulatta; settings: hek-293t
[39] = Blood clearance in dog at 1 mg/kg, iv and 10 mg/kg, po; assay type: ADME, organism-based, Canis lupus familiaris
Histamine H4 receptor [40] = target: T3, Histamine H4 receptor (Mus musculus, UniProt Q91ZY2); experiment: Displacement of [3H]-histamine from mouse H4R expressed in HEK293T cells; assay type: cell-based, HEK-293T
T3 sequence (Q91ZY2 whole entry): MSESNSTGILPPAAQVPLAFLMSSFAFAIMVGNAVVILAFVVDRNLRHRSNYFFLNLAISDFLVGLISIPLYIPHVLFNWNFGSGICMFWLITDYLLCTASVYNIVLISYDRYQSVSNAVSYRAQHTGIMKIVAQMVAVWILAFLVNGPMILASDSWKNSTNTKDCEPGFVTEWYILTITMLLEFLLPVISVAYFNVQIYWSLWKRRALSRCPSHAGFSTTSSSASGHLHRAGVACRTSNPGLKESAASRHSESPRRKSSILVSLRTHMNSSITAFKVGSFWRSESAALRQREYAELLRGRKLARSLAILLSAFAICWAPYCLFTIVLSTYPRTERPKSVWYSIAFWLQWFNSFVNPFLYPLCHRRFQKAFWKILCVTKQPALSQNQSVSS

HEK-293T [41] = experiment: Inverse agonist activity at macaque H4R expressed in HEK293T cells assessed as reversal of forskolin-induced cAMP production by CRE-beta-lactamase reporter gene assay; assay type: functional, cell-based; settings: Macaca mulatta
HEK-293T [42] = experiment: Agonist activity at macaque H4R expressed in HEK293T cells assessed as reversal of forskolin-induced cAMP production by CRE-beta-lactamase reporter gene assay; assay type: functional, cell-based; settings: Macaca mulatta
HEK-293T [43] = experiment: Agonist activity at dog H4R expressed in HEK293T cells assessed as reversal of forskolin-induced cAMP production by CRE-beta-lactamase reporter gene assay; assay type: functional, cell-based; settings: Canis lupus familiaris
[44] = target: T4, Histamine H4 receptor (Cavia porcellus) (UniProt Q91ZY3); experiment: Agonist activity at guinea pig H4R expressed in HEK293T cells assessed as reversal of forskolin-induced cAMP production by CRE-beta-lactamase reporter gene assay; assay type: functional, cell-based; settings: HEK-293T
T4 sequence (whole entry): T2 sequence (Q91ZY3 whole entry)

Histamine H4 receptor [45] = target: T1, Histamine H4 receptor; experiment: Antagonist activity at full length human H4R expressed in HEK293 cells assessed as inhibition of forskolin-induced cAMP responsive element-beta-lactamase activity at 15 uM; assay type: functional, cell-based

With `CNC1CN(c2cc(NCc3cccc(F)c3)nc(N)n2)C1` the Ki (Histamine H4 receptor [1]) was 13 nM, the microsomal CLint [2] was < 8.5 µL/min/mg and the Ki (Histamine H4 receptor [3]) was 18 nM. For the same compound, the Activity (Rattus norvegicus [4]) was “Toxic” and the Activity (Rattus norvegicus [5]) was “Toxic”.
Work on `CN1CCN(c2cc(NCCC(C)(C)C)ncn2)CC1` yielded a Ki (Histamine H4 receptor [1]) of 92 nM.
With `CN1C[C@@H]2CN(C(=O)c3nc4cc(F)c(F)cc4[nH]3)C[C@@H]2C1` the clearance [6] was 59 mL/min/kg, the Activity (Rattus norvegicus [7]) was “Toxic” and the bioavailability [8] was 50%. The half-life [9] was 0.8 h, the Ki (Histamine H4 receptor [1]) was 53 nM and the Activity (Rattus norvegicus [10]) was “Toxic”. For the same compound, the microsomal CLint [2] was 10 µL/min/mg, the Activity (Rattus norvegicus [11]) was “Active” and the Vd [12] was 4.1 L/kg. For the same compound, the Ki (Histamine H4 receptor [3]) was 128 nM, the microsomal CLint [13] was < 7 µL/min/mg and the Activity (Rattus norvegicus [14]) was “Dose-dependent effect”. For the same compound, the Activity (Rattus norvegicus [15]) was “Dose-dependent effect” and the Activity (Rattus norvegicus [16]) was “Dose-dependent effect”.
`CN[C@@H]1CCN(c2cc(NCC3CC3)nc(N)n2)C1` [ADRIFORANT] gave a Ki (Histamine H4 receptor [17]) of 6.17 nM, a blood plasma ratio [18] of 3 and a fraction unbound [19] of 0.84. It also gave a half-life [20] of 7 h, a Ki (Histamine H4 receptor [1]) of 1.56 nM and a half-life [21] of 24 h. The IC50 (Histamine H4 receptor [22]) was 1.3 nM, the bioavailability [23] was 62% and the microsomal CLint [2] was < 8.5 µL/min/mg. It also gave a PPB (Plasma) of 0%, a Ki (Histamine H4 receptor [24]) of 123 nM and a Ki (Histamine H4 receptor [25]) of 12.3 nM. The IC50 (Histamine H4 receptor [26]) was 4.9 nM, the bioavailability [27] was 39% and the Ki (Histamine H4 receptor [3]) was 2.4 nM. The Vd [28] was 14 L/kg, the logD [29] was -0.1 and the Activity (HEK-293T [30]) was “Active”. The pKi [31] was 5.79, the Vd [32] was 18 L/kg and the fraction unbound [33] was 0.81. The blood plasma ratio [34] was 2, the clearance [35] was 29 mL/min/kg and the microsomal CLint [13] was < 7 µL/min/mg. For the same compound, the Activity [36] was “Active”, the blood plasma ratio [37] was 1 and the pKi [38] was 7.81. For the same compound, the clearance [39] was 7 mL/min/kg, the Ki (Histamine H4 receptor [40]) was 20.9 nM and the Activity (HEK-293T [41]) was “Active”.
For `CN1CCN(C(=O)c2cc3cc(Cl)ccc3[nH]2)CC1` [JNJ-7777120], the Activity (HEK-293T [42]) was “Active”, the microsomal CLint [2] was 61 µL/min/mg and the Activity (HEK-293T [43]) was “Active”. It also gave a logD [29] of 2.6, a pKi [31] of 6.89 and a microsomal CLint [13] of 28 µL/min/mg. For the same compound, the Activity [44] was “Active” and the pKi [38] was 7.17.
For `CC(C)(C)CCNc1cc(NC2CCN(Cc3ccc(CO)o3)C2)ncn1` (racemic), the inhibition (Histamine H4 receptor [45]) was 73%.
